Test [1] relates to advanced non-small cell lung cancer (NSCLC) patients. Nature of the test: Progression-free survival by RECIST 1.1 CT assessment in NSCLC patients on TKI therapy. In kind it is in vivo, human. As to conditions: single patient CGPLLU2 with metastatic disease; osimertinib 80 mg PO daily; subsequently developed resistance in the primary lung lesion. The text has this: (§1) Serial blood was drawn from fifteen advanced non-small cell lung cancer (NSCLC) patients undergoing treatment with targeted tyrosine kinase inhibitors (TKIs), afatinib or osimertinib, to directly detect somatic sequence and structural alterations in cfDNA, to monitor ctDNA dynamics during therapy, to determine cell-free tumor burden, and to predict clinical outcome (FIG. 1). Liquid biopsies were obtained from 11 radiographic responders and four radiographic non-responders immediately prior to treatment (baseline), 6-22 days post treatment, and at serial time points until disease progression. The ultrasensitive targeted error correction sequencing (TEC-Seq) approach (6) was used as well as whole genome sequencing to identify tumor-derived sequence alterations and chromosomal copy number changes in cell-free DNA (cfDNA). […] Next, changes in cfTL were evaluated within hours to days after treatment compared to baseline and assessed whether cfTL could serve as a marker of patient outcome.
For each patient, ˜5 ml of plasma were collected immediately prior to therapy (baseline), at 6-22 days after therapy initiation (median 16 days), and at additional serial time points until disease progression was confirmed by radiographic assessment (Tables S1 and S2). Target lesions were evaluated before therapy with CT/MRI imaging and approximately every six weeks until disease progression. […]

The test system is the same in test [2]. Nature of the test: Cell-free tumor load (cfTL) in plasma cfDNA by TEC-Seq during TKI therapy. In kind it is in vivo, human. The settings on record: single patient CGPLLU2 with metastatic disease; osimertinib 80 mg PO daily.
Excerpt: as §1, with “progression.” for “progression. The ultrasensitive targeted error correction sequencing (TEC-Seq) approach (6) was used as well as whole genome sequencing to identify tumor-derived sequence alterations and chromosomal copy number changes in cell-free DNA (cfDNA).”, “outcome. […]” for “outcome.”
For all patients, serial blood draws were collected over the course of treatment with targeted inhibition for isolation of plasma and extraction of cell-free DNA (cfDNA) for genomic analyses. Time points were analyzed immediately prior to treatment for baseline assessment as well as 6-22 days post treatment and at serial time points until disease progression (Table S2).
Sequence and copy number alterations were detected in cfDNA for each patient at each time point analyzed and used a tiered approach to evaluate tumor burden. […]

The text below walks through data of patent US20210079384A1, “NON-INVASIVE DETECTION OF RESPONSE TO A TARGETED THERAPY” (The Johns Hopkins University, priority 2018, published 2021).

In turn, `C=CC(=O)Nc1cc(Nc2nccc(-c3cn(C)c4ccccc34)n2)c(OC)cc1N(C)CCN(C)C` [osimertinib] gave a progression-free survival in test [1] of 7.0 months. The “change of cfTL from baseline to day 10” value in test [2] is reported as “rapid decline”.
